Laboratory results taken from patent US20190023658A1, “SUBSTITUTED 2-DIFLUOROMETHYL-NICOTIN(THIO)CARBOXANILIDE DERIVATIVES AND THEIR USE AS FUNGICIDES” (Bayer CropScience Aktiengesellschaft, priority 2015, published 2019).

Assay: Log P by HPLC on reversed phase columns (EEC directive 79/831 Annex V.A8)
Type: physicochemical
Conditions: for chromatographic logP: reversed phase HPLC column
Protocol: Measurement of Log P values was performed according to EEC directive 79/831 Annex V.A8 by HPLC (High Performance Liquid Chromatography) on reversed phase columns with the following methods: [a] Log P value is determined by measurement of LC-UV, in an acidic range, with 0.1% formic acid in water and acetonitrile as eluent (linear gradient from 10% acetonitrile to 95% acetonitrile). [b] Log P value is determined by measurement of LC-UV, in a neutral range, with 0.001 molar ammonium acetate solution in water and acetonitrile as eluent (linear gradient from 10% acetonitrile to 95% acetonitrile). Calibration was done with straight-chain alkan2-ones (with 3 to 16 carbon atoms) with known Log P values (measurement of Log P values using retention times with linear interpolation between successive alkanones). Lambda-max-values were determined using UV-spectra from 200 nm to 400 nm and the peak values of the chromatographic signals.

[1] = [a] LC-UV, acidic range, 0.1% formic acid in water and acetonitrile as eluent
[2] = [b] LC-UV, neutral range, 0.001 molar ammonium acetate solution in water and acetonitrile as eluent

Row | SMILES | LogP [1] | further results
1 | Cc1ccc(Oc2ccccc2NC(=O)c2cccnc2C(F)F)cc1 [Example I-01, 2-(difluoromethyl)-N-[2-(4-methylphenoxy)phenyl]nicotinamide] | – | chromatographic logP [1]: 3.27
2 | O=C(Nc1ccccc1Oc1ccc(Cl)cc1)c1cccnc1C(F)F [Example I-03] | 3.33^[a] | –
3 | O=C(Nc1ccccc1Oc1cc(F)cc(C(F)(F)F)c1)c1cccnc1C(F)F [Example I-04] | 3.57^[a] | –
4 | O=C(Nc1ccccc1Oc1ccc(C(F)(F)F)cc1)c1cccnc1C(F)F [Example I-07] | 3.46^[a] | –
5 | O=C(Nc1ccccc1Oc1cccc(F)c1F)c1cccnc1C(F)F [Example I-08] | 2.98^[a] | –
6 | O=C(Nc1cccc(Cl)c1Sc1ccccc1)c1cccnc1C(F)F [Example I-09] | 3.59^[a] | –
7 | O=C(Nc1cccc(Cl)c1Oc1ccc(Cl)cc1)c1cccnc1C(F)F [Example I-10] | 3.59^[a] | –
8 | O=C(Nc1ccccc1Sc1ccccc1)c1cccnc1C(F)F [Example I-11] | 3.21^[a] | –
9 | O=C(Nc1ccccc1Oc1ccccc1F)c1cccnc1C(F)F [Example I-15] | 2.88^[a] | –
10 | O=C(Nc1ccccc1Oc1cccc(C(F)(F)F)c1)c1cccnc1C(F)F [Example I-18] | 3.44^[a] | –
11 | Cc1cccc(Oc2ccccc2NC(=O)c2cccnc2C(F)F)c1 [Example I-19] | 3.23^[a] | –
12 | O=C(Nc1ccccc1Oc1ccccc1)c1cccnc1C(F)F [Example I-20] | 2.90^[a] | –
13 | O=C(Nc1ccccc1Oc1ccccc1Cl)c1cccnc1C(F)F [Example I-26] | 3.11^[a] | –
14 | O=C(Nc1ccccc1Oc1cccc(F)c1)c1cccnc1C(F)F [Example I-27] | 2.96^[a] | –
15 | O=C(Nc1ccccc1Oc1ccc(F)cc1)c1cccnc1C(F)F [Example I-28] | 2.96^[a] | –
16 | N#Cc1ccc(Oc2ccccc2NC(=O)c2cccnc2C(F)F)cc1 [Example I-29] | 2.51^[a] | –
17 | O=C(Nc1ccccc1Oc1ccc(Br)cc1)c1cccnc1C(F)F [Example I-30] | 3.39^[a] | –
18 | CON=Cc1ccc(-c2ccccc2NC(=O)c2cccnc2C(F)F)cc1 [Example I-32] | 2.86^[a] | –
19 | CON=Cc1c(F)cc(-c2cccc(F)c2NC(=O)c2cccnc2C(F)F)cc1F [Example I-33] | 2.97^[a] | –
20 | O=C(Nc1ccccc1-c1ccc(F)cc1)c1cccnc1C(F)F [Example I-34] | 2.66^[a] | –
21 | O=C(Nc1ccc(F)cc1-c1ccc(Cl)c(Cl)c1)c1cccnc1C(F)F [Example I-37] | 3.44^[a] | –
22 | O=C(Nc1ccccc1-c1cc(F)cc(F)c1)c1cccnc1C(F)F [Example I-38] | 2.80^[a] | –
23 | O=C(Nc1ccccc1-c1cccc(C(F)(F)F)c1)c1cccnc1C(F)F [Example I-39] | 3.15^[a] | –
24 | O=C(Nc1ccccc1-c1ccc(Cl)cc1)c1cccnc1C(F)F [Example I-40] | 2.92^[a] | –
25 | O=C(Nc1ccccc1-c1ccc(C(F)(F)F)c(F)c1)c1cccnc1C(F)F [Example I-43] | 3.25^[a] | –

Row | SMILES | LogP [1] | further results
26 | O=C(Nc1ccccc1-c1ccc(F)cc1F)c1cccnc1C(F)F [Example I-45] | 2.66^[a] | –
27 | O=C(Nc1ccc(F)cc1-c1ccc(F)cc1)c1cccnc1C(F)F [Example I-47] | 2.73^[a] | –
28 | CCON=Cc1c(F)cc(-c2ccccc2NC(=O)c2cccnc2C(F)F)cc1F [Example I-50] | 3.46^[a] | –
29 | O=C(Nc1ccccc1-c1ccccc1Cl)c1cccnc1C(F)F [Example I-51] | 2.74 | LogP [2]: 2.68
30 | O=C(Nc1ccccc1-c1cccc(Cl)c1)c1cccnc1C(F)F [Example I-52] | 2.96^[a] | –
31 | O=C(Nc1ccccc1-c1cc(Cl)cc(Cl)c1)c1cccnc1C(F)F [Example I-53] | 3.48^[a] | –
32 | O=C(Nc1ccccc1-c1ccc(Cl)c(Cl)c1)c1cccnc1C(F)F [Example I-54] | 3.35^[a] | –
33 | CSc1ccc(-c2ccccc2NC(=O)c2cccnc2C(F)F)cc1 [Example I-56] | 2.94^[a] | –
34 | CCOc1c(F)cc(-c2ccccc2NC(=O)c2cccnc2C(F)F)cc1F [Example I-57] | 3.29^[a] | –
35 | CCCOc1c(F)cc(-c2ccccc2NC(=O)c2cccnc2C(F)F)cc1F [Example I-58] | 3.61^[a] | –
36 | CCCCOc1c(F)cc(-c2ccccc2NC(=O)c2cccnc2C(F)F)cc1F [Example I-59] | 3.99^[a] | –
37 | CCON=Cc1c(F)cc(-c2cccc(F)c2NC(=O)c2cccnc2C(F)F)cc1F [Example I-60] | 3.35^[a] | –
38 | O=C(Nc1ccccc1-c1ccccc1)c1cccnc1C(F)F [Example I-61] | 2.55^[a] | –
39 | CC(C)(C)C#Cc1ccc(-c2ccccc2NC(=O)c2cccnc2C(F)F)cc1 [Example I-62] | 4.29^[a] | –
40 | O=C(Nc1ccccc1-c1ccc(C(F)(F)F)c(Cl)c1)c1cccnc1C(F)F [Example I-63] | 3.50^[a] | –
41 | CCON=Cc1c(F)cc(-c2cc(F)ccc2NC(=O)c2cccnc2C(F)F)cc1F [Example I-65] | 3.55^[a] | –
42 | O=C(Nc1ccccc1-c1ccc(F)c(Cl)c1)c1cccnc1C(F)F [Example I-66] | 3.04^[a] | –
43 | CCON=Cc1ccc(-c2ccccc2NC(=S)c2cccnc2C(F)F)cc1 [Example I-67] | 3.70^[a] | –
44 | FC(F)c1ncccc1C(=S)Nc1ccccc1-c1ccc(C(F)(F)F)c(Cl)c1 [Example I-68, N-[3′-chloro-4′-(trifluoromethyl)biphenyl-2-yl]-2-(difluoromethyl)pyridine-3-carbothioamide] | – | chromatographic logP [1]: 3.94
45 | CCON=Cc1c(F)cc(-c2cc(F)ccc2NC(=S)c2cccnc2C(F)F)cc1F [Example I-70] | 4.11^[a] | –
46 | N#Cc1c(F)cc(-c2ccccc2NC(=S)c2cccnc2C(F)F)cc1F [Example I-71] | 3.19^[a] | –
47 | CCON=Cc1c(F)cc(-c2cccc(F)c2NC(=S)c2cccnc2C(F)F)cc1F [Example I-72] | 3.99^[a] | –
48 | COC(=N)c1c(F)cc(-c2cccc(F)c2NC(=S)c2cccnc2C(F)F)cc1F [Example I-74] | 3.60^[a] | –
49 | CON=Cc1c(F)cc(-c2ccccc2NC(=S)c2cccnc2C(F)F)cc1F [Example I-76] | 3.55^[a] | –

More lines, main results first:

Row | LogP [1] | SMILES | further results
50 | 3.27^[a] | Cc1ccccc1Oc1ccccc1NC(=O)c1cccnc1C(F)F [Example I-02] | –
51 | 2.92^[a] | COc1cccc(Oc2ccccc2NC(=O)c2cccnc2C(F)F)c1 [Example I-05] | –
52 | 3.11^[a] | O=C(Nc1ccccc1Oc1cc(F)cc(F)c1)c1cccnc1C(F)F [Example I-12] | –
53 | 2.90^[a] | COc1ccc(Oc2ccccc2NC(=O)c2cccnc2C(F)F)cc1 [Example I-13] | –
54 | 3.57^[a] | O=C(Nc1ccccc1Sc1ccc(Cl)cc1)c1cccnc1C(F)F [Example I-14] | –
55 | 3.09^[a] | O=C(Nc1ccccc1Oc1ccc(F)c(F)c1)c1cccnc1C(F)F [Example I-16] | –
56 | 3.65^[a] | O=C(Nc1ccccc1Oc1ccc(Cl)cc1Cl)c1cccnc1C(F)F [Example I-17] | –
57 | 2.88^[a] | COc1ccccc1Oc1ccccc1NC(=O)c1cccnc1C(F)F [Example I-21] | –
58 | 3.15^[a] | O=C(Nc1cccc(Cl)c1Oc1ccccc1)c1cccnc1C(F)F [Example I-22] | –
59 | 2.56^[a] | O=C(Nc1ccccc1S(=O)(=O)c1ccccc1)c1cccnc1C(F)F [Example I-23] | –
60 | 3.63^[a] | O=C(Nc1cc(C(F)(F)F)ccc1Oc1ccccc1)c1cccnc1C(F)F [Example I-24] | –
61 | 3.81^[a] | O=C(Nc1ccccc1Oc1cc(Cl)cc(Cl)c1)c1cccnc1C(F)F [Example I-25] | –
62 | 3.06^[a] | O=C(Nc1ccccc1-c1ccc(Cl)c(F)c1)c1cccnc1C(F)F [Example I-35] | –
63 | 2.71^[a] | N#Cc1c(F)cc(-c2ccccc2NC(=O)c2cccnc2C(F)F)cc1F [Example I-36] | –
64 | 3.23^[a] | CCON=Cc1ccc(-c2ccccc2NC(=O)c2cccnc2C(F)F)cc1 [Example I-41] | –
65 | 2.78^[a] | O=C(Nc1ccccc1-c1ccc(F)c(F)c1)c1cccnc1C(F)F [Example I-42] | –
66 | 2.99 | O=C(Nc1ccccc1-c1ccccc1C(F)(F)F)c1cccnc1C(F)F [Example I-44] | LogP [2]: 2.93
67 | 2.92^[a] | O=C(Nc1ccccc1-c1cc(F)c(F)c(F)c1)c1cccnc1C(F)F [Example I-48] | –
68 | 3.17^[a] | CON=Cc1c(F)cc(-c2ccccc2NC(=O)c2cccnc2C(F)F)cc1F [Example I-49] | –
69 | 3.16^[a] | COC(=N)c1c(F)cc(-c2cc(F)ccc2NC(=O)c2cccnc2C(F)F)cc1F [Example I-55] | –
70 | 3.73^[a] | COC(=N)c1c(F)cc(-c2cc(F)ccc2NC(=S)c2cccnc2C(F)F)cc1F [Example I-69] | –
71 | 3.27^[a] | Fc1ccc(-c2ccccc2NC(=S)c2cccnc2C(F)F)cc1F [Example I-73] | –
72 | 3.92^[a] | CCON=Cc1c(F)cc(-c2ccccc2NC(=S)c2cccnc2C(F)F)cc1F [Example I-75] | –
